# How the values were obtained:
# Type in all cases: cell-based
# [1] = test system: Botrytis cinerea; assay: Example 1: activity against the grey mold Botrytis cinerea in the microtiterplate test; details: 31 ppm active substance; relative to compound-free control (100%); 405 nm, 7 days after inoculation
# [2] = test system: Fusarium culmorum; assay: Example 2: activity against Fusarium culmorum in the microtiterplate test; details: 31 ppm active substance; relative to compound-free control (100%); 405 nm, 7 days after inoculation
# Description: The active compounds were formulated separately as a stock solution having a concentration of 10000 ppm in dimethyl sulfoxide.
# (§1) The stock solutions were mixed according to the ratio, pipetted onto a micro titer plate (MTP) and diluted with water to the stated concentrations. A spore suspension of Fusarium culmorum in an aqueous biomalt or yeast-bactopeptone-glycerine or DOB solution was then added. The plates were placed in a water vapor-saturated chamber at a temperature of 18° C. Using an absorption photometer, the MTPs were measured at 405 nm 7 days after the inoculation.
# (§2) The measured parameters were compared to the growth of the active compound-free control variant (100%) and the fungus-free blank value to determine the relative growth in % of the pathogens in the respective active compounds.
# [3] = test system: Septoria tritici; assay: Comparative Example 1: activity against leaf blotch on wheat caused by Septoria tritici (microtiter plate); details: at 125 ppm; relative to compound-free control (100%); 405 nm, 7 days after inoculation
# Description: as §1, with “The active compounds were formulated separately as a stock solution having a concentration of 10000 ppm in dimethyl sulfoxide. The stock” for “The stock”, “suspension of Septoria tritici in an” for “suspension of Fusarium culmorum in an”
# as §2
# [4] = test system: Colletotrichum orbiculare; assay: Comparative Example 3: activity against anthracnose caused by Colletotrichum orbiculare in the microtiterplate test; details: at 2 ppm; relative to compound-free control (100%); 405 nm, 7 days after inoculation
# Description: (§3) The active compounds were formulated separately as a stock solution having a concentration of 10000 ppm in dimethyl sulfoxide. The stock solutions were mixed according to the ratio, pipetted onto a micro titer plate (MTP) and diluted with water to the stated concentrations. A spore suspension of Colletotrichum orbiculare in an aqueous bio malt solution was then added. The plates were placed in a water vapor-saturated chamber at a temperature of 18° C. Using an absorption photometer, the MTPs were measured at 405 nm 7 days after the inoculation.
# as §2
# [5] = test system: Leptosphaeria nodorum; assay: Comparative Example 2: activity against wheat leaf spots caused by Leptosphaeria nodorum (microtiter plate); details: relative to compound-free control (100%), 405 nm, 7 days after inoculation
# Description: as §3, with “Leptosphaeria nodorum” for “Colletotrichum orbiculare”, “biomalt or yeast-bactopeptone-glycerine or DOE” for “bio malt”
# as §2
SMILES,growth of the pathogen [1],growth of the pathogen [2],Growth (%) at 125 pm [3],Growth (%) at 2 pm [4],Growth (%) at 125 pm [5]
Cc1cc(C2=NC(C)(C(C)(C)C)Oc3ccccc32)cnc1C (stereo not shown) [Ex-2],0%,,,,
Cc1cc(C2=NC(C)(C(C)(C)C)Oc3ccccc32)cnc1C(F)F (stereo not shown) [Ex-3],0%,,,,
Cc1cc(C2=NC3(CCC(C)(C)C3)Oc3ccccc32)cnc1C (stereo not shown) [Ex-4],0%,1%,,,
Cc1cc(C2=NC(C)(C(C)C)Oc3ccccc32)cnc1C (stereo not shown) [Ex-5],0%,,,,
Cc1cc(C2=NC(C)(C)Oc3ccccc32)cnc1C [Ex-6],0%,1%,,,
Cc1cc(C2=NC(C)(c3ccc(Cl)cc3)Oc3ccccc32)cnc1C(F)F (stereo not shown) [Ex-51],,,46%,22%,15%
Cc1cc(C2=NC(C)(Cc3ccc(F)cc3)Oc3ccccc32)cnc1C(F)F (stereo not shown) [Ex-58],,,73%,55%,8%
CC1(c2ccc(Cl)cc2)N=C(c2ccc(Cl)nc2)c2ccccc2O1 (stereo not shown) [reference compound],,,69%,88%,47%
CC1(Cc2ccc(F)cc2)N=C(c2ccc(Cl)nc2)c2ccccc2O1 (stereo not shown) [reference compound],,,93%,96%,43%

# Reference: patent US20240294544A1, “NEW SUBSTITUTED PYRIDINES AS FUNGICIDES” (BASF SE, priority 2021, published 2024)
